Results: patent publication US20240228481A1, “NOVEL SULFONAMIDE SERIES OF QR2 INHIBITORS TO TACKLE OXIDATIVE STRESS AND COGNITIVE DECLINE” (CARMEL HAIFA UNIVERSITY ECONOMIC CORPORATION LTD., priority 2021, published 2024)

Columns and labels:
Assay type in all cases: biochemical
QR1 (NQO1) [1] = target: T1, QR1 (NQO1) (Homo sapiens, UniProt P15559); experiment: Selectivity assay with QR1 in place of QR2, fluorescence readout
T1 construct: purchased Sigma-Aldrich
Method: (§1) The enzymatic activity of QR2 (10 nM) was measured using menadione (both Sigma-Aldrich) as substrate and dihydrobenzylnicotamide (BNAH; Tocris) as co-substrate (Boutin et al., 2005). The reaction was performed in 50 mM Tris HCl, 150 mM NaCl 0.01% Tween-20 pH=8.5 (Sigma-Aldrich) at room temperature. Briefly, 3 μL of menadione alone (200 μM) or a mixture of menadione and QR2 (200 μM of menadione and 10 nM of QR2) were dispensed in 1536-well black Nunc plates (Thermo-Fisher) using a Multidrop™ Combi Reagent Dispenser (Thermo-Fisher) and pre-incubated with compounds for 10 min. BNAH (200 μM) was then added (3 μL) to the reaction using a BioNex Solutions BNX 1536 plate washer and the plates were incubated for another 10 min. […] The initial HTS was done with approximately 200,000 compounds at a single concentration of 5 μM. The chemical libraries used were Selleck Chemicals Bioactives, the Drug-like set from Enamine, HitFinder collection from Maybridge, Spectrum Collection from Microsource, Lopac from Sigma-Aldrich and the diversity sets from ChemDiv and ChemBridge. Initial “hit” compounds were defined as causing >30% reduction of enzyme activity. Compounds suspected to be fluorescent were re-assayed in an absorbance assay at 350 nm using the same reaction but in a higher volume (100 μL), in a transparent plate (Greiner Bio-One). “Hit” compounds resulting from both the fluorescence and absorbance assay were tested in a dose-response, and median inhibition concentration (IC50) values were determined. In parallel, the same dose response was used in a selectivity assay where QR2 enzyme was replaced by QR1 (also known as—NQO1, 10 nM; Sigma-Aldrich).
(§2) In order to establish a varied, flexible and chemically amenable starting point from which to develop such inhibitors, the inventors ran a standardized QR2 assay (see methods) against ˜200,000 compounds, from a varied assortment of chemical libraries. […] Compounds that replicated the initial hit result were then assayed similarly, against NQO1, to evaluate compound specificity (FIG. 1B). From the HTS, a series of compounds containing a sulfonamide central linker, with an amine on one side and a heterocycle on the other, were identified and selected for SAR development (FIG. 1C).

QR2 [2] = target: T2, QR2 (Homo sapiens, UniProt P16083); experiment: QR2 enzymatic activity assay (menadione/BNAH), fluorescence readout; set-up: purchased Sigma-Aldrich
T2 sequence (P16083 1-231): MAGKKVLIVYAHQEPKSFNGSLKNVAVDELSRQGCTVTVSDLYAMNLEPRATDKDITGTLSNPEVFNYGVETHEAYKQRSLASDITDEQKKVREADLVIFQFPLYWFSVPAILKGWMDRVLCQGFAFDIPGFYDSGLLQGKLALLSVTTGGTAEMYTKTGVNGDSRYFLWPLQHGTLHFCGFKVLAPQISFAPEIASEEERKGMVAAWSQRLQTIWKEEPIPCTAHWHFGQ
Method: (§3) The enzymatic activity of QR2 (10 nM) was measured using menadione (both Sigma-Aldrich) as substrate and dihydrobenzylnicotamide (BNAH; Tocris) as co-substrate (Boutin et al., 2005). The reaction was performed in 50 mM Tris HCl, 150 mM NaCl 0.01% Tween-20 pH=8.5 (Sigma-Aldrich) at room temperature. Briefly, 3 μL of menadione alone (200 μM) or a mixture of menadione and QR2 (200 μM of menadione and 10 nM of QR2) were dispensed in 1536-well black Nunc plates (Thermo-Fisher) using a Multidrop™ Combi Reagent Dispenser (Thermo-Fisher) and pre-incubated with compounds for 10 min. BNAH (200 μM) was then added (3 μL) to the reaction using a BioNex Solutions BNX 1536 plate washer and the plates were incubated for another 10 min. […] The initial HTS was done with approximately 200,000 compounds at a single concentration of 5 μM. The chemical libraries used were Selleck Chemicals Bioactives, the Drug-like set from Enamine, HitFinder collection from Maybridge, Spectrum Collection from Microsource, Lopac from Sigma-Aldrich and the diversity sets from ChemDiv and ChemBridge. Initial “hit” compounds were defined as causing >30% reduction of enzyme activity. […] “Hit” compounds resulting from both the fluorescence and absorbance assay were tested in a dose-response, and median inhibition concentration (IC50) values were determined. In parallel, the same dose response was used in a selectivity assay where QR2 enzyme was replaced by QR1 (also known as—NQO1, 10 nM; Sigma-Aldrich).
(§4) In order to establish a varied, flexible and chemically amenable starting point from which to develop such inhibitors, the inventors ran a standardized QR2 assay (see methods) against ˜200,000 compounds, from a varied assortment of chemical libraries.

QR1 (NQO1) [3] = target: T1, QR1 (NQO1); experiment: Selectivity assay with QR1 in place of QR2, absorbance readout
Method: as §1, §2

QR2 [4] = target: T2, QR2; experiment: QR2 enzymatic activity assay (menadione/BNAH), absorbance readout at 350 nm; set-up: purchased Sigma-Aldrich
Method: as §3, §4

T1 sequence (P15559 whole entry): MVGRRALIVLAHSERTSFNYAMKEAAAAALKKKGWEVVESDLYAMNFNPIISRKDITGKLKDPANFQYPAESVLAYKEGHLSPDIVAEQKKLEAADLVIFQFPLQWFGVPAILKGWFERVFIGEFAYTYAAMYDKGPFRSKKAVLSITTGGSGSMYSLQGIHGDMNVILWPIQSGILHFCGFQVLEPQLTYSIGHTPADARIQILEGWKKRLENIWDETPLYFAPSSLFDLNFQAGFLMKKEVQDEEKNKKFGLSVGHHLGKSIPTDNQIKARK

| SMILES | IC50 (QR1 (NQO1) [1]) [µM] | IC50 (QR2 [2]) [µM] | IC50 (QR1 (NQO1) [3]) [µM] | IC50 (QR2 [4]) [µM] |
| --- | --- | --- | --- | --- |
| CN(C)S(=O)(=O)c1cccc2ccccc12 [PCM-0071569] | > 9.8 | > 9.8 | – | – |
| COCCNC(=O)N1CCN(S(=O)(=O)c2c(C)c(C)c(C)c(C)c2C)CC1 [PCM-0072788] | > 9.8 | > 9.8 | – | – |
| Cc1c(C)c(C)c(S(=O)(=O)N2CCNC(=O)C2)c(C)c1C [PCM-0083647] | > 9.8 | 7.04 | – | – |
| COc1cc(NS(C)(=O)=O)ccc1Cc1c2ccccc2nc2ccccc12 [PCM-0090313] | > 9.8 | > 9.8 | – | – |
| CS(=O)(=O)N(Cc1cccnc1)C1CN(C(=O)c2c[nH]c3ccccc23)C1 [PCM-0105406] | > 9.9 | > 9.9 | > 9.99 | 8.43 |
| CCCn1cc(C2CCN(S(=O)(=O)c3ccc(C(C)(C)C)cc3)CC2)c2cccnc21 [PCM-0105813] | > 9.9 | > 9.9 | > 9.99 | > 9.99 |
| CCCn1cc(C2=CCN(S(=O)(=O)Cc3ccccc3)CC2)c2cccnc21 [PCM-0105851] | > 9.9 | > 9.9 | > 9.99 | 9.05 |
| COCC1CN(S(=O)(=O)Cc2ccccc2)CC12CCNCC2 (centres unmarked) [PCM-0109036] | > 9.9 | > 9.9 | > 9.99 | > 9.99 |
| CC(=O)N1CCOc2ccc(S(=O)(=O)N3CCCc4ccccc43)cc21 [PCM-0119249] | 4.7 | > 9.9 | 3.48 | > 9.99 |
| CCOC(=O)c1c(S(=O)(=O)N(CC)c2cccc(C)c2)c(C)n(C)c1C [PCM-0119438] | 5.39 | 3.59 | > 9.99 | 8.98 |
| CCOC(=O)c1c(S(=O)(=O)N2CCN(Cc3ccccc3)CC2)c(C)n(C)c1C [PCM-0119478] | > 9.9 | > 9.9 | > 9.99 | > 9.99 |
| CCOC(=O)c1c(S(=O)(=O)N(CCC(C)C)Cc2ccco2)c(C)n(C)c1C [PCM-0120203] | 3.79 | 8.21 | > 9.9 | 8.53 |
| CCOC(=O)c1cc(-c2ccc(OC)c(S(=O)(=O)N3CCCc4ccccc43)c2)on1 [PCM-0120247] | > 9.9 | > 9.9 | > 9.99 | > 9.99 |
| CCCS(=O)(=O)Nc1ccc2c(c1)C(=O)Nc1cc(C)ccc1O2 [PCM-0120253] | 4.6 | > 9.9 | > 9.99 | 8.89 |
| CCCS(=O)(=O)N1CCCc2cc(NC(=O)c3ccco3)ccc21 [PCM-0120563] | > 9.9 | > 9.9 | > 9.99 | > 9.99 |
| COc1ccc(OC)c(S(=O)(=O)Nc2cccc(-c3cn4c(C)csc4n3)c2)c1 [PCM-0121306] | 8.77 | 0.83 | > 9.99 | 2.03 |
| Cc1ccn2cc(-c3cccc(S(=O)(=O)N4CC(C)CC(C)C4)c3)nc2c1 (centres unmarked) [PCM-0124575] | > 9.9 | 2.18 | > 9.99 | 1.22 |
| Cc1ccc2nc(-c3cccc(S(=O)(=O)N4CCOCC4)c3)cn2c1 [PCM-0124615] | > 9.9 | 3.25 | > 9.99 | 1.65 |
| Cc1ccc2nc(-c3cccc(S(=O)(=O)N4CC(C)OC(C)C4)c3)cn2c1 (centres unmarked) [PCM-0124655] | > 9.9 | 4.42 | > 9.99 | 3.03 |

| SMILES | IC50 (QR1 (NQO1) [1]) [µM] | IC50 (QR2 [2]) [µM] | IC50 (QR1 (NQO1) [3]) [µM] | IC50 (QR2 [4]) [µM] |
| --- | --- | --- | --- | --- |
| CCCN(CCC)S(=O)(=O)c1cccc(-c2cn3cccc(C)c3n2)c1 [PCM-0124772] | > 9.9 | 0.83 | > 9.99 | 0.75 |
| Cc1ccc(-c2nnc(-c3ccccc3)o2)cc1S(=O)(=O)N(C)C [PCM-0127506] | > 9.99 | 2.2 | > 9.99 | 1.62 |
| CCN(CC)S(=O)(=O)c1cc(-c2nnc(-c3ccccc3)o2)ccc1C [PCM-0127546] | > 9.9 | 4.82 | > 9.99 | 3.12 |
| Cc1ccc(-c2nnc(-c3ccccc3)o2)cc1S(=O)(=O)N1CCC(C)CC1 [PCM-0127586] | > 9.99 | 5.97 | > 9.99 | 1.2 |
| Cc1c(-c2nnc(C3CCC3)o2)c(S(=O)(=O)NCc2ccc(Cl)cc2)c(C)n1C [PCM-0128885] | > 9.9 | > 9.9 | > 9.99 | > 9.99 |
| COc1cc(Cl)c(NS(=O)(=O)c2ccc(-c3cc(C)no3)cc2OC)c(OC)c1 [PCM-0131156] | > 9.9 | 3.82 | > 9.99 | 2.73 |
| Cc1cc(-c2ccc(C)c(S(=O)(=O)NCC3CCN(Cc4ccco4)CC3)c2)on1 [PCM-0136246] | > 9.9 | 3.98 | > 9.99 | 2.56 |
| O=c1n(Cc2ccc(Cl)cc2)nc2ccc(S(=O)(=O)N3CCCCC3)cn12 [PCM-0140113] | > 9.9 | > 9.9 | > 9.99 | > 9.99 |
| COc1ccc(S(=O)(=O)N2CCC(NC(=O)N3CCCC3)CC2)cc1 [PCM-0154188] | > 9.9 | 2.06 | > 9.99 | 3.83 |
| N#Cc1nc(-c2ccc(S(=O)(=O)N3CCCC3)cc2)oc1NCCCN1CCOCC1 [PCM-0172736] | < 0.83 | < 0.83 | > 9.99 | > 9.99 |
| CNC(=O)N1CCc2cc(S(=O)(=O)N3CCc4ccccc43)ccc21 [PCM-0181527] | > 9.9 | > 9.9 | > 9.99 | > 9.99 |
| Cc1cc(-c2ccc(C)c(S(=O)(=O)Nc3ccc(Cl)cc3)c2)[nH]n1 [PCM-0186036] | > 9.99 | 2.36 | > 9.99 | 1.16 |
| O=S(=O)(Nc1cccc(-c2cn3ccsc3n2)c1)c1ccc2c(c1)OCCO2 [PCM-0190999] | < 0.83 | 5.62 | < 0.75 | 4.03 |
| COc1ccc(O)cc1NC(=O)c1oc2ccc(S(=O)(=O)N3CCCC3)cc2c1C [PCM-0193675] | > 9.9 | > 9.9 | > 9.99 | > 9.99 |
| Cc1csc(-c2cc(S(=O)(=O)NC3CCCCC3)c(C)n2C)n1 [PCM-0195577] | > 9.9 | > 9.9 | > 9.99 | > 9.99 |
| CCOC(=O)C1CCN(S(=O)(=O)c2cc(-c3csc(C)n3)ccc2C)CC1 [PCM-0197024] | > 9.9 | 4.16 | > 9.99 | 3.2 |
| Cc1nc(-c2ccc(C)c(S(=O)(=O)N3CCN(C(=O)c4ccco4)CC3)c2)cs1 [PCM-0197066] | > 9.99 | 4.65 | > 9.99 | 1.28 |
| Cc1ccn2cc(-c3cccc(S(=O)(=O)N(C)C)c3)nc2c1 [PCM-0213801] | > 9.99 | – | > 9.99 | – |
| Cc1ccc(-c2cn3cccc(C)c3n2)cc1S(=O)(=O)N1CCN(C)CC1 [YB-540] | > 9.99 | 0.425 | – | – |
